The values below come from ChEMBL document CHEMBL1833851, “Design, synthesis and X-ray crystallographic study of new nonsecosteroidal vitamin D receptor ligands” (Bioorg Med Chem Lett, 2011).

The target in this test is T1, Vitamin D3 receptor (Homo sapiens, UniProt P11473).
T1 sequence (P11473 whole entry): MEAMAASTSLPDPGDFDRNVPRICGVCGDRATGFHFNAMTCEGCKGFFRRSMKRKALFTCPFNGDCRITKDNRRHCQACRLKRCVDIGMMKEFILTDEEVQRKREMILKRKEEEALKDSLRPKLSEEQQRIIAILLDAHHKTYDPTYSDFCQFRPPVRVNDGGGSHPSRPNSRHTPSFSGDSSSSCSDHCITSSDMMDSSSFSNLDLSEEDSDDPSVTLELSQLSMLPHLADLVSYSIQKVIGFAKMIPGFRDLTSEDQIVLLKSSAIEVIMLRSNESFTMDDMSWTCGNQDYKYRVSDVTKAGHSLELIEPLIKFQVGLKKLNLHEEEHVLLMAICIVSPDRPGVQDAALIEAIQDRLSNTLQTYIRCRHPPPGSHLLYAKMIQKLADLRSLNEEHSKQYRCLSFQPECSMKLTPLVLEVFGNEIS
Briefly: Activity at human VDR expressed in human HOS cells transfected with pGL3-hOc, pCDNA-hVDR and phRL-TK assessed as assessed as transcriptional activation measured 24 hrs post […] by luciferase reporter gene assay. Type of test: cell-based. (In general: Reporter assays use an easily measured gene product as a stand-in for the process of interest.)

The term EC50 denotes the concentration giving half of the maximal effect. For `CCC(CC)(c1ccc(OC[C@H](O)C(C)(C)C)c(C)c1)c1ccc(OC(CCO)CCO)c(C)c1`, the EC50 is 19.4 nM.

For the compound `CCC(CC)(c1ccc(OCC(CO)CO)c(C)c1)c1ccc(OC[C@H](O)C(C)(C)C)c(C)c1`, the EC50 came out at 1.11 nM.

On to `CCC(CC)(c1ccc(OC[C@H](O)C(C)(C)C)c(C)c1)c1ccc(O[C@@H](CO)[C@@H](O)CO)c(C)c1`, for which the EC50 amounted to 0.92 nM.

For `CCC(CC)(c1ccc(OC[C@H](O)C(C)(C)C)c(C)c1)c1ccc(O[C@H](CO)[C@H](O)CO)c(C)c1`, the EC50 was 1.25 nM.

As to `CCC(CC)(c1ccc(OC[C@H](O)C(C)(C)C)c(C)c1)c1ccc(O[C@@H](CO)CCO)c(C)c1`, the EC50 turned out to be 0.06 nM.

Take `CCC(CC)(c1ccc(OC[C@H](O)C(C)(C)C)c(C)c1)c1ccc(O[C@H](CO)CCO)c(C)c1`: the EC50 is 1.29 nM.
